Reference: PMC9146984, “A Novel Proline-Rich Cathelicidin from the Alpaca Vicugna pacos with Potency to Combat Antibiotic-Resistant Bacteria: Mechanism of Action and the Functional Role of the C-Terminal Region” (Membranes, 2022)
Converted amounts (≈) assume the structure as drawn. Where a SMILES comes first, the peptide text is derived from it.

What was measured:
[1] = tested on: Mycobacterium phlei Ac-1291; experiment: Antimicrobial assay (MIC); type: cell-based; conditions: Mueller-Hinton broth supplemented with 0.9% NaCl
Experimental: (§1) The reduction of resazurin to resorufin was measured.

A. baumannii XDR CI 2675 = experiment: Antimicrobial assay (MIC); type: cell-based; conditions: Mueller-Hinton broth supplemented with 0.9% NaCl
Experimental: as §1

PBMC = experiment: Cytokine response (multiplex xMAP immunoassay); type: cell-based, human; conditions: 2 µM peptide, 24 h
Experimental: (§2) Acute monocytic leukemia THP-1 line (ATCC TIB-202) was cultured in complete RPMI 1640 medium (Invitrogen, Waltham, MA, USA) containing 10% FBS, 1× antibiotic-antimycotic solution (Invitrogen, Waltham, MA, USA), and 0.05 mM β-mercaptoethanol, in the CO2-incubator (5% CO2, 37 °C). THP-1 cells were differentiated into proinflammatory macrophages (MΦ1) according to the previously reported protocol. Primary peripheral blood mononuclear cells (PBMC) collected from a healthy donor were purchased from American Type Culture Collection (ATCC PCS-800-011), thawed, and seeded into a 96-well plate one day prior to the experiment at a density of 2 × 10^5 cells/well. Two different cell subpopulations (monocytes and T-/B-/NK-lymphocytes) were isolated from PBMC based on their adherence ability. Macrophages MΦ1 were washed out and seeded into 96-well plates at a density of 10^5 cells/well one day prior to the experiment. The next day medium in each well was replaced by a fresh complete RPMI 1640 medium with or without 2 μM of cathelicidin (VicBac[1–22] or VicBac[1–39]). Cell cultures were kept in a CO2 incubator (5% CO2, 37 °C) for 24 h. Culture supernatants were collected 24 h later and stored at −70 °C degrees less than one week prior to the assessment of analytes. 27 analytes were measured at a protein level by multiplex xMAP technology using the MILLIPLEX MAP Human Cytokine/Chemokine Magnetic Bead Immunology Panel kit (HCYTOMAG-60K-27, Merck, Darmstadt, Germany): eotaxin-1/CCL11, TGFα, GM-CSF, IFNα2, IFNγ, IL-10, IL-12p40, IL-12p70, IL-13, IL-15, sCD40L, IL-17A, IL-1RA, IL-1α, IL-9, IL-1β, IL-2, IL-3, IL-4, IL-5, IL-6, IL-7, IL-8/CXCL8, IP-10/CXCL10, RANTES/CCL5, TNFα, TNFβ. Multiplex-based assay read-out was performed using the MAGPIX system (Merck) with the xPONENT 4.2 software (Merck, Darmstadt, Germany) in accordance with the manufacturer’s instruction with overnight incubation of the samples with primary antibodies. The final analysis was carried out with the MILLIPLEX Analyst v5.1 software (Merck). Measurements were performed twice for each sample. The release of the analytes in control and experimental samples were compared by unpaired two-sample t-test using GraphPad Prism v.8.0.1. The p values ≤ 0.05 were considered significant.

primary monocytes = experiment: Cytokine response (multiplex xMAP immunoassay); type: cell-based, human; conditions: 2 µM peptide, 24 h
Experimental: as §2

T-/B-/NK-lymphocytes = experiment: Cytokine response (multiplex xMAP immunoassay); type: cell-based, human; conditions: 2 µM peptide, 24 h
Experimental: as §2

[2] = tested on: proinflammatory macrophages (MΦ1) from THP-1; experiment: Cytokine response (multiplex xMAP immunoassay); type: cell-based, human; conditions: 2 µM peptide, 24 h
Experimental: as §2

E. coli MDR 1057 = conditions: MH broth with 0.9% NaCl, 14 passages with the same agent (VicBac[1–22]: after 10 passages)
Experimental: Resistance induction experiments were performed using the previously described method. Briefly, on day one, the overnight culture of wild-type bacteria was diluted with the 2× MH broth supplemented with 1.8% NaCl to reach a final cell concentration of 10^6 CFU/mL. 50 µL of the obtained bacterial suspension were added to aliquots of 50 µL of the peptide solutions serially diluted with the sterilized 0.1% BSA in 96-well flat-bottom polystyrene microplates. After incubation for 20 ± 2 h at 37 °C and 950 rpm, MICs were determined as described above. For each subsequent daily transfer, 2–4 μL of the inoculum taken from the first well containing a sub-inhibitory drug concentration were diluted with 2 mL of the fresh 2× MH broth supplemented with 1.8% NaCl. […] Bacteria that grew at the highest concentration of AMPs on the final day were passaged a further 3 times on drug-free agar plates before determining the final MIC value.

B. subtilis B-886 = experiment: Antimicrobial assay (MIC); type: cell-based, Bacillus subtilis; conditions: Mueller-Hinton broth supplemented with 0.9% NaCl
Experimental: as §1

[3] = tested on: panel of reference bacterial pathogens and antibiotic-resistant clinical isolates; conditions: Mueller–Hinton broth supplemented with 0.9% NaCl
Experimental: Bacterial test cultures were grown in the Mueller-Hinton broth (MH; Sigma, St. Louis, MO, USA) at 37 °C to mid-log phase and then diluted with the 2× MH medium supplemented with 1.8% NaCl or without salt so that to reach a final cell concentration of 10^6 CFU/mL. 50 µL of the obtained bacterial suspension were added to aliquots of 50 µL of the peptide solutions serially diluted with sterilized 0.1% bovine serum albumin (BSA) in 96-well flat-bottom polystyrene microplates (Eppendorf #0030730011, Hamburg, Germany). […] To verify MIC values, the respiratory activity of the bacteria was determined. Briefly, 20 µL of 0.1 mg/mL resazurin (a redox indicator; Sigma, St. Louis, MO, USA) was added to the wells after 24 h of incubation, and the plate was incubated for an additional two hours. The reduction of resazurin to resorufin was measured. […] The results were expressed as the median values determined based on at least three independent experiments performed in triplicate.

[4] = tested on: E. coli BL21 (DE3) Star cell extract, coupled transcription/translation of EGFP; experiment: In vitro transcription/translation inhibition assay (cell-free EGFP synthesis); type: biochemical, Escherichia coli; conditions: EGFP fluorescence, 2 h, 30 °C; at least two independent experiments in triplicate; read-out: IC50, inhibition of in vitro protein synthesis in the E. coli cell-free system
Experimental: To investigate the effect of cathelicidins on the coupled transcription/translation process, the peptides were added to a cell-free protein synthesis (CFPS) reaction mix with a plasmid encoding enhanced green fluorescent protein (EGFP) variant (F64L, S65T, Q80R, F99S, M153T, and V163A) under control of the T7 promoter as described previously with some modifications. Briefly, the peptides were dissolved in 0.1% BSA in water. Bac7[1–22] was used as a positive control inhibitor. The fluorescence of the sample without inhibitor was set as the 100% value. The reaction proceeded for 2 h in 96-well v-bottom black polystyrene microplates in a plate shaker (30 °C, 1000 rpm). The fluorescence of the synthesized EGFP was measured with the microplate reader AF2200 (λExc = 488 nm, λEm = 510 nm; Eppendorf, Hamburg, Germany). The experimental data were obtained from at least two independent experiments performed in triplicate. Non-linear regression curves were generated using GraphPad Prism v.8.0.1 (GraphPad Software Inc., San Diego, CA, USA).

P. aeruginosa PAO1 = experiment: Antimicrobial assay (MIC); type: cell-based, Pseudomonas aeruginosa; conditions: Mueller-Hinton broth supplemented with 0.9% NaCl
Experimental: as §1

P. aeruginosa ATCC 27853 = experiment: Antimicrobial assay (MIC); type: cell-based, Pseudomonas aeruginosa; conditions: Mueller-Hinton broth supplemented with 0.9% NaCl
Experimental: as §1

E. coli ML-35p = experiment: Antimicrobial assay (MIC); type: cell-based, Escherichia coli; conditions: Mueller-Hinton broth supplemented with 0.9% NaCl
Experimental: as §1

E. coli CI 214 = experiment: Antimicrobial assay (MIC); type: cell-based, Escherichia coli; conditions: Mueller-Hinton broth supplemented with 0.9% NaCl
Experimental: as §1

CC[C@H](C)[C@H](NC(=O)[C@H](CCCNC(=N)N)NC(=O)[C@@H](N)CCCNC(=N)N)C(=O)N[C@@H](CCCNC(=N)N)C(=O)N[C@@H](CCCNC(=N)N)C(=O)N1CCC[C@H]1C(=O)N[C@@H](CCCNC(=N)N)C(=O)N[C@@H](CC(C)C)C(=O)N1CCC[C@H]1C(=O)N[C@@H](CCCNC(=N)N)C(=O)N1CCC[C@H]1C(=O)N[C@@H](CCCNC(=N)N)C(=O)N[C@H](C(=O)N1CCC[C@H]1C(=O)N[C@@H](CCCNC(=N)N)C(=O)N1CCC[C@H]1C(=O)N[C@@H](CCCNC(=N)N)C(=O)N[C@H](C(=O)N1CCC[C@H]1C(=O)N1CCC[C@H]1C(=O)N[C@@H](CCCNC(=N)N)C(=O)N[C@H](C(=O)N1CCC[C@H]1C(=O)N[C@@H](CCCNC(=N)N)C(=O)N1CCC[C@H]1C(=O)N[C@H](C(=O)N[C@@H](CC(C)C)C(=O)N1CCC[C@H]1C(=O)N1CCC[C@H]1C(=O)N1CCC[C@H]1C(=O)N[C@@H](CCCNC(=N)N)C(=O)N[C@H](C(=O)N1CCC[C@H]1C(=O)N[C@@H](Cc1ccccc1)C(=O)N1CCC[C@H]1C(=O)N[C@@H](CCCNC(=N)N)C(=O)N[C@@H](Cc1ccccc1)C(=O)N1CCC[C@H]1C(=O)N[C@@H](CCCNC(=N)N)C(N)=O)C(C)C)C(C)C)[C@@H](C)CC)[C@@H](C)CC)C(C)C [VicBac[1-39]] (H-RRIRRPRLPRPRVPRPRIPPRIPRPVLPPPRVPFPRFPR-NH2; N-terminus assumed)
MIC, Mycobacterium phlei Ac-1291 [1]: 0.5 µM (≈ 2.41 µg/mL)
MIC, A. baumannii XDR CI 2675 (A. baumannii XDR CI 2675): 8 µM (≈ 38.5 µg/mL)
IL-1RA on PBMC (PBMC; control 95.52 pg/mL): 18.79 pg/mL
Production of RANTES/CCL5 on PBMC (PBMC; control 286.63 pg/mL): 54.72 pg/mL
Production of TNFα by monocytes (primary monocytes; control 18.47 pg/mL, two biological replications): 11.41 pg/mL
IL-1RA on primary monocytes (primary monocytes; control 163.77 pg/mL): 37.82 pg/mL
Production of RANTES/CCL5 on primary monocytes (primary monocytes; control 284.28 pg/mL): 71.5 pg/mL
CXCL10/IP-10 production in the T/B/NK culture (T-/B-/NK-lymphocytes): elevated
TNFα production by macrophages ([2]; control 12.94 pg/mL, significance level quite low): 28.68 pg/mL
IL-1RA on pro-inflammatory macrophages ([2]; control 25.21 pg/mL): 9.47 pg/mL
increase in MIC value after serial passage selection (E. coli MDR 1057): did not change
MIC, B. subtilis B-886 (B. subtilis B-886): 16 µM (≈ 77.1 µg/mL)
MIC values, in most cases, against panel of reference pathogens and clinical isolates [3]: 0.25 to 8 µM
IC50 [4]: 500 nM
MIC, P. aeruginosa PAO1 (P. aeruginosa PAO1): 8 µM (≈ 38.5 µg/mL)
MIC, P. aeruginosa ATCC 27853 (P. aeruginosa ATCC 27853): 4 µM (≈ 19.3 µg/mL)
MIC, E. coli ML-35p (E. coli ML-35p): 0.5 µM (≈ 2.41 µg/mL)
MIC, E. coli CI 214 (E. coli CI 214): 8 µM (≈ 38.5 µg/mL)
